Earlier results, collected in patent US20150030676A1, “STABLIZED MODIFIED RELEASE FOLIC ACID DERIVATIVE COMPOSITION, ITS THERAPEUTIC USE AND METHODS OF MANUFACTURE” (APTALIS PHARMATECH, INC., priority 2013, published 2015).

Conditions: in vivo

## 6(S)-5-methyltetrahydrofolate [L-methylfolate]
  plasma elimination half life: about 3 hours
